Measurements: US11753445B2, “Therapeutic peptides” (COHBAR, INC., priority 2016, dated 2023)

Key:
Human Primary Adipocytes [1] = experiment: Free fatty acid levels in cultured human primary adipocytes, forskolin stimulated (Example 5); type: cell-based; conditions: forskolin 1 μM; for Free Fatty Acid Levels in Human Primary Adipocytes Expressed as a Percent of Forskolin Control: Percent of Control Value: test peptides 25 μM
How it was run: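 Differentiated human primary adipocytes (14–24 days) were exposed to peptides at 25 μM for 18–20 h and 1 h, then stimulated with 1 μM forskolin plus peptide for 3 h at 37 °C. Medium free fatty acids were measured colorimetrically (540 nm), background-corrected and expressed relative to forskolin-only cells.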

[2] = Stability in mouse plasma, peptides 100 uM (Example 14); type: in vitro ADME; conditions: mouse plasma 37° C., peptide 100 uM; for remaining at 0.25 h, 100 uM / remaining at 0.5 h, 100 uM / remaining at 1 h, 100 uM / remaining at 2 h, 100 uM / remaining at 3 h, 100 uM: pooled mouse plasma; for remaining at 0.25 h, 100 uM: 15 min, read-out: % Remaining at Each Time Point: 15 min; for remaining at 0.5 h, 100 uM: 30 min, read-out: % Remaining at Each Time Point: 30 min; for remaining at 1 h, 100 uM: 60 min, read-out: % Remaining at Each Time Point: 60 min; for remaining at 2 h, 100 uM: 120 min, read-out: % Remaining at Each Time Point: 120 min; for remaining at 3 h, 100 uM: 180 min, read-out: % Remaining at Each Time Point: 180 min
Experimental: Peptides (100 uM) were incubated in pooled mouse plasma at 37° C. and samples were removed and immediately analyzed for the concentration of intact peptide by LC/MS/MS over the course of 3 hours. The percent of peptide remaining in plasma at each time point was calculated relative to the initial peak area (Table 12).

Human Primary Adipocytes [3] = experiment: Free fatty acid levels in cultured human primary adipocytes, isoproterenol stimulated (Example 4); type: cell-based; conditions: isoproterenol 1 nM; for Free Fatty Acid Levels in Human Primary Adipocytes Expressed as a Percent of Isoproterenol Control: Percent of Control Value: test peptides 25 μM
Experimental: Human primary adipocytes were seeded at 5,000-100,000 cells per well on 96-well, 48-well, or 24-well plates in Pre-adipocyte Medium (Zen-Bio, Durham, N.C.) and grown to confluence at 37° C. in a humidified atmosphere of 5% CO2/95% air. Two days after confluence, cells were placed in Adipocyte Differentiation Medium (Zen-Bio, Durham, N.C.) and cultured for three additional days at 37° C. in a humidified atmosphere of 5% CO2/95% air. The culture media was then replaced with Adipocyte Maintenance Medium (Zen-Bio) and the cells were maintained for an additional 11-21 days at 37° C. in a humidified atmosphere of 5% CO2/95% air with partial medium replacement every other day. Following 14-24 days of differentiation, test peptides were added at a final concentration of 25 μM and incubated for 18-20 hours in Adipocyte Maintenance Medium at 37° C. in a humidified atmosphere of 5% CO2/95%. After 18-20 hours, the media was exchanged with fresh Adipocyte Maintenance Medium containing test peptides and incubated for 1 h at 37° C. in a humidified atmosphere of 5% CO2/95%. After 1 h media was exchanged with Assay Buffer (Zen-Bio) containing isoproterenol (1 nM) (added to all samples except untreated controls) and test peptides. Cells were incubated for a further 3 hours at 37° C. in a humidified atmosphere of 5% CO2/95%. Free fatty acid concentrations in the media were determined using a Free Fatty Acid Assay Kit (Zen-Bio) according to the manufacturer's instructions using a plate reader (540 nm). Absorbance values were corrected for untreated background and expressed relative to isoproterenol treated cells. Treatment with isoproterenol (1 nM) alone was used as the free fatty acid level stimulatory control. The relative standard deviation of the isoproterenol control was <14%. […] Free fatty acid levels for insulin (100 nM) treatment were <5% of the isoproterenol control value.

3T3-L1 Adipocytes = experiment: Free fatty acid levels in cultured mouse 3T3-L1 adipocytes, isoproterenol stimulated (Example 2); type: cell-based; conditions: isoproterenol 1 nM; for Free Fatty Acid Levels in 3T3-L1 Adipocytes Expressed as a Percent of Isoproterenol Control: Percent of Control Value: test peptides 25 μM
How it was run: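 Release of free fatty acids, read at 540 nm, was stimulated with 1 nM isoproterenol for 3 h in mouse 3T3-L1 adipocytes (12–17 days of differentiation). Cells were pre-exposed to 25 μM peptide for 18–20 h plus 1 h, with peptide kept in during stimulation. Values are background-subtracted and normalised to isoproterenol alone.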

[4] = insulin 100 nM, human primary adipocytes

| Substance | % Remaining at Each Time Point: 0 min [2] | remaining at 0.25 h, 100 uM [2] | remaining at 0.5 h, 100 uM [2] | remaining at 1 h, 100 uM [2] | remaining at 2 h, 100 uM [2] | remaining at 3 h, 100 uM [2] | Free Fatty Acid Levels in Human Primary Adipocytes Expressed as a Percent of Forskolin Control: Percent of Control Value (Human Primary Adipocytes [1]) | Free Fatty Acid Levels in Human Primary Adipocytes Expressed as a Percent of Isoproterenol Control: Percent of Control Value (Human Primary Adipocytes [3]) | Free Fatty Acid Levels in 3T3-L1 Adipocytes Expressed as a Percent of Isoproterenol Control: Percent of Control Value (3T3-L1 Adipocytes) | Free fatty acid levels, % of the forskolin control value (Human Primary Adipocytes [1]; [4]) | Free fatty acid levels, % of the isoproterenol control value (Human Primary Adipocytes [3]; [4]) | Free fatty acid levels, % of the isoproterenol control value (3T3-L1 Adipocytes; insulin 100 nM, 3T3-L1 adipocytes) |
| --- | --- | --- | --- | --- | --- | --- | --- | --- | --- | --- | --- | --- |
| H-MRWQEMGYIFYPRKLA-OH [compound 21] | 100% | 29.9% | 31% | 21.5% | 6.41% | 2.13% | 113% | 88.9% | 45.1% | – | – | – |
| H-MRWQEMGYIFYPRKLR-OH [compound 2] | 100% | 32% | 14.8% | 7.58% | 4.78% | 1.21% | 111% | 107% | 63.3% | – | – | – |
| H-RWQEMQYIFYPR-OH [compound 211] | – | – | – | – | – | – | 90.1% | 79.9% | 29.9% | – | – | – |
| Insulin [reference compound] | – | – | – | – | – | – | – | – | – | < 8% | < 5% | < 5% |

More lines, main results first:

| % Remaining at Each Time Point: 0 min [2] | remaining at 0.25 h, 100 uM [2] | remaining at 0.5 h, 100 uM [2] | remaining at 1 h, 100 uM [2] | remaining at 2 h, 100 uM [2] | remaining at 3 h, 100 uM [2] | Substance | Free Fatty Acid Levels in Human Primary Adipocytes Expressed as a Percent of Forskolin Control: Percent of Control Value (Human Primary Adipocytes [1]) | Free Fatty Acid Levels in Human Primary Adipocytes Expressed as a Percent of Isoproterenol Control: Percent of Control Value (Human Primary Adipocytes [3]) | Free Fatty Acid Levels in 3T3-L1 Adipocytes Expressed as a Percent of Isoproterenol Control: Percent of Control Value (3T3-L1 Adipocytes) | Free fatty acid levels, % of the forskolin control value (Human Primary Adipocytes [1]; [4]) | Free fatty acid levels, % of the isoproterenol control value (Human Primary Adipocytes [3]; [4]) | Free fatty acid levels, % of the isoproterenol control value (3T3-L1 Adipocytes; insulin 100 nM, 3T3-L1 adipocytes) |
| --- | --- | --- | --- | --- | --- | --- | --- | --- | --- | --- | --- | --- |
| 100% | 41% | 29.4% | 20.5% | 10% | 7.45% | H-MRWQEMGYIFYPRNLR-OH [compound 213] | 90.8% | 103% | 48.1% | – | – | – |
| 100% | 63.3% | 53.1% | 48.9% | 45.3% | 47.7% | H-MRWQEMNYIFYPR-OH [compound 208] | 90.2% | 70.9% | 57.9% | – | – | – |
| 100% | 44.5% | 40.9% | 41.3% | 19.8% | 12.2% | H-MRWQEMQYIFYPRALR-OH [compound 219] | 84.0% | 69.4% | 38.9% | – | – | – |
| 100% | 56.2% | 44.8% | 39.6% | 34.4% | 41.4% | H-RWQEMNYIFYPR-OH [compound 210] | 95.2% | 75.5% | 44.6% | – | – | – |
